Reference: patent publication US11053241B2, “TYK2 inhibitors and uses thereof” (Nimbus Lakshmi, Inc., priority 2018, dated 2021)

Experiments:
[1] = target: human TYK2 (JH2domain-pseudokinase) (Homo sapiens (Human), UniProt P29597); test: TYK2 JH2 Domain Binding Assay (KINOMEscan); conditions: 11-point 3-fold dilution, top concentration 30,000 nM, duplicate
In short: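 Competition binding used an NFkB-DNA-tagged fusion of TYK2 JH2 (G556–D888) expressed in HEK293 extracts against an immobilised ligand, 1 h at room temperature. Bead-bound kinase was quantified by qPCR. Kd came from an 11-point 3-fold series with a 30,000 nM top concentration and 0.9% DMSO, Hill slope −1, run in duplicate.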

[2] = target: TYK2 kinase domain (JH1) (Homo sapiens (Human), UniProt P29597); test: TYK2 Radioactive Kinase Assay; type: biochemical; conditions: compound at 10 μM; ATP at 10 μM; 120 min at room temp
Description: (§1) Peptide substrate, [KKSRGDYMTMQIG], (20 μM) was prepared in reaction buffer (20 mM Hepes pH 7.5, 10 mM MgCl2, 1 mM EGTA, 0.02% Brij35, 0.02 mg/mL BSA, 0.1 mM […], 2 mM DTT, 1% DMSO). TYK2 (Invitrogen) kinase was added, followed by compounds in DMSO. ^33PATP was added to initiate the reaction in ATP at 10 μM. The kinase reaction was incubated for 120 min at room temp and reactions were spotted onto P81 ion exchange paper (Whatman #3698-915), and then washed extensively in 0.75% phosphoric acid, prior to reading the radioactivity counts. For JAK2 (Invitrogen) kinase assay the peptide substrate poly[Glu:Tyr](4:1), 0.2 mg/ml was used, in the reaction carried out the same as for TYK2.
(§2) The TYK2 and JAK2 radioactive kinase assay measures the percent inhibition at the TYK2 kinase domain (JH1) and the percent inhibition at the JAK2 kinase domain (JH1). Results of the assay are expressed as percent inhibition at 10 μM.

[3] = target: JAK2 kinase domain (JH1) (Homo sapiens (Human), UniProt O60674); test: JAK2 Radioactive Kinase Assay; type: biochemical; conditions: compound at 10 μM; ATP at 10 μM; substrate poly[Glu:Tyr](4:1)
Description: as §1, §2

Chain of human TYK2 (JH2domain-pseudokinase) (P29597 556-888): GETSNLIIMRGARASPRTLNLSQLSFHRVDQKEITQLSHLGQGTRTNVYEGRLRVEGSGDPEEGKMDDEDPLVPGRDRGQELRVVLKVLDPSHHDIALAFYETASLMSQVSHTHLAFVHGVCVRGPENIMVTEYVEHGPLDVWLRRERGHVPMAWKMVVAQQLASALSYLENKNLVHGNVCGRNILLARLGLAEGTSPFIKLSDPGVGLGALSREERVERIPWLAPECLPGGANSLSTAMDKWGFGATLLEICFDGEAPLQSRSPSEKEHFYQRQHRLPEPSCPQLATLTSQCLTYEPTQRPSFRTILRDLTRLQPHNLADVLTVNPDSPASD
Chain of JAK2 kinase domain (JH1) (O60674 849-1124): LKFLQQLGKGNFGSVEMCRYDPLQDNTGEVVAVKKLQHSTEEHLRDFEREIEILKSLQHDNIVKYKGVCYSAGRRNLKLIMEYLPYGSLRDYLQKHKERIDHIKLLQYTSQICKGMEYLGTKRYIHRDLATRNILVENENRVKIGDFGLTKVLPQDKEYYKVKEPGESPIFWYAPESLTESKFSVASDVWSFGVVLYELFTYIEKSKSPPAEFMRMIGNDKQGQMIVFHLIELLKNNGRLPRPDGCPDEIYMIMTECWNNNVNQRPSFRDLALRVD
Chain of TYK2 kinase domain (JH1) (P29597 897-1176): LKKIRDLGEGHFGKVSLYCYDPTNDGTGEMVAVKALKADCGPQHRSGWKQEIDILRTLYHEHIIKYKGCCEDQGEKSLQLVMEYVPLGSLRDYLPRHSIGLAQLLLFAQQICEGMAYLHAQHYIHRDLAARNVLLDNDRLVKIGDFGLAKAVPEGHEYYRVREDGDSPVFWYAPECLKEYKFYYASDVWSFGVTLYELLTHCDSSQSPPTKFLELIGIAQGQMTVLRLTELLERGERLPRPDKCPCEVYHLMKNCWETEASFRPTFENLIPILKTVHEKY

Structure (SMILES) | Kd [1] [pM] | inhibition at 10 µM [2] [%] | inhibition at 10 µM [3] [%]
CNC(=O)c1cnc(NC(=O)C2CC2)c2[nH]c(-c3cc(-c4ccn(C)n4)cnc3OC3CC3)cc12 [Compound I-38, 7-(cyclopropanecarboxamido)-2-(2-cyclopropoxy-5-(1-methyl-1H-pyrazol-3-yl)pyridin-3-yl)-N-methyl-1H-pyrrolo[2,3-c]pyridine-4-carboxamide] | 1000 to 10000 | < 50 | < 50
[2H]C([2H])([2H])NC(=O)c1cnc(NC(=O)C2CC2)c2[nH]c(-c3cccc(-c4ncn(C)n4)c3)cc12 [Compound I-6, 7-(cyclopropanecarboxamido)-N-(methyl-d3)-2-(3-(1-methyl-1H-1,2,4-triazol-3-yl)phenyl)-1H-pyrrolo[2,3-c]pyridine-4-carboxamide] | < 200 | < 50 | < 50
CNC(=O)c1cnc(NC(=O)C2CC2)c2[nH]c(-c3cc(-c4ncco4)ccn3)cc12 [Compound I-15, 7-(cyclopropanecarboxamido)-N-methyl-2-(4-(oxazol-2-yl)pyridin-2-yl)-1H-pyrrolo[2,3-c]pyridine-4-carboxamide] | 200 to 1000 | < 50 | < 50
CNC(=O)c1cnc(NC(=O)C2CC2)c2[nH]c(-c3cccc(-c4ncn(C)n4)c3F)cc12 [Compound I-36, 7-(cyclopropanecarboxamido)-2-(2-fluoro-3-(1-methyl-1H-1,2,4-triazol-3-yl)phenyl)-N-methyl-1H-pyrrolo[2,3-c]pyridine-4-carboxamide] | < 200 | < 50 | < 50
[2H]C([2H])([2H])NC(=O)c1cnc(NC(=O)C2CC2)c2[nH]c(-c3cc(-c4ncn(C)n4)ccn3)cc12 [Compound I-16, 7-(cyclopropanecarboxamido)-N-(methyl-d3)-2-(4-(1-methyl-1H-1,2,4-triazol-3-yl)pyridin-2-yl)-1H-pyrrolo[2,3-c]pyridine-4-carboxamide] | < 200 | < 50 | < 50
CNC(=O)c1cnc(NC(=O)C2CC2)c2[nH]c(-c3cccc(-n4nccn4)c3)cc12 [Compound I-8, 2-(3-(2H-1,2,3-triazol-2-yl)phenyl)-7-(cyclopropanecarboxamido)-N-methyl-1H-pyrrolo[2,3-c]pyridine-4-carboxamide] | 1000 to 10000 | < 50 | < 50
CNC(=O)c1ccc(-c2cc3c(C(=O)NC)cnc(NC(=O)C4CC4)c3[nH]2)c(OC)c1 [Compound I-29, 7-(cyclopropanecarboxamido)-2-(2-methoxy-4-(methylcarbamoyl)phenyl)-N-methyl-1H-pyrrolo[2,3-c]pyridine-4-carboxamide] | 200 to 1000 | < 50 | < 50
CNC(=O)c1cnc(NC(=O)C2CC2)c2[nH]c(-c3cccc(-c4cnc(C)cn4)c3)cc12 [Compound I-27, 7-(cyclopropanecarboxamido)-N-methyl-2-(3-(5-methylpyrazin-2-yl)phenyl)-1H-pyrrolo[2,3-c]pyridine-4-carboxamide] | < 200 | < 50 | < 50
CNC(=O)c1cnc(NC(=O)C2CC2)c2[nH]c(-c3cccc(N4CCOCC4)c3F)cc12 [Compound I-22, 7-(cyclopropanecarboxamido)-2-(2-fluoro-3-morpholinophenyl)-N-methyl-1H-pyrrolo[2,3-c]pyridine-4-carboxamide] | < 200 | < 50 | < 50
[2H]C([2H])([2H])NC(=O)c1cnc(NC(=O)C2CC2)c2[nH]c(-c3ccccc3)cc12 [Compound I-3, 7-(cyclopropanecarboxamido)-N-(methyl-d3)-2-phenyl-1H-pyrrolo[2,3-c]pyridine-4-carboxamide] | 200 to 1000 | < 50 | < 50
CNC(=O)c1cnc(NC(=O)C2CC2)c2[nH]c(-c3ccccc3C3(S(C)(=O)=O)CC3)cc12 [Compound I-5, 7-(cyclopropanecarboxamido)-N-methyl-2-(2-(1-(methylsulfonyl)cyclopropyl)phenyl)-1H-pyrrolo[2,3-c]pyridine-4-carboxamide] | 1000 to 10000 | < 50 | < 50
CNC(=O)CCCNc1ccc(-c2cc3c(C(=O)NC)cnc(NC(=O)C4CC4)c3[nH]2)c(OC)c1 [Compound I-30, 7-(cyclopropanecarboxamido)-2-(2-methoxy-4-((4-(methylamino)-4-oxobutyl)amino)phenyl)-N-methyl-1H-pyrrolo[2,3-c]pyridine-4-carboxamide] | < 200 | < 50 | < 50
CCOc1ncccc1-c1cc2c(C(=O)NC)cnc(NC(=O)C3CC3)c2[nH]1 [Compound I-33, 7-(cyclopropanecarboxamido)-2-(2-ethoxypyridin-3-yl)-N-methyl-1H-pyrrolo[2,3-c]pyridine-4-carboxamide] | 200 to 1000 | < 50 | < 50
CNC(=O)c1cnc(NC(=O)C2CC2)c2[nH]c(-c3cc(-c4csc(C)n4)ccn3)cc12 [Compound I-10, 7-(cyclopropanecarboxamido)-N-methyl-2-(4-(2-methylthiazol-4-yl)pyridin-2-yl)-1H-pyrrolo[2,3-c]pyridine-4-carboxamide] | 200 to 1000 | < 50 | < 50

Next, values leading:

Kd [1] [pM] | inhibition at 10 µM [2] [%] | inhibition at 10 µM [3] [%] | Structure (SMILES)
1000 to 10000 | < 50 | < 50 | CNC(=O)c1cnc(NC(=O)C2CC2)c2[nH]c(-c3ccc(=O)n(C4CC4)c3)cc12 [Compound I-40, 7-(cyclopropanecarboxamido)-2-(1-cyclopropyl-6-oxo-1,6-dihydropyridin-3-yl)-N-methyl-1H-pyrrolo[2,3-c]pyridine-4-carboxamide]
200 to 1000 | < 50 | < 50 | CNC(=O)c1cnc(NC(=O)C2CC2)c2[nH]c(-c3cccc(-c4nc(C)n(C)n4)c3)cc12 [Compound I-28, 7-(cyclopropanecarboxamido)-2-(3-(1,5-dimethyl-1H-1,2,4-triazol-3-yl)phenyl)-N-methyl-1H-pyrrolo[2,3-c]pyridine-4-carboxamide]
< 200 | < 50 | < 50 | CNC(=O)c1cnc(NC(=O)C2CC2)c2[nH]c(-c3ccc4ccn(C)c4c3F)cc12 [Compound I-21, 7-(cyclopropanecarboxamido)-2-(7-fluoro-1-methyl-1H-indol-6-yl)-N-methyl-1H-pyrrolo[2,3-c]pyridine-4-carboxamide]
< 200 | < 50 | < 50 | CNC(=O)c1cnc(NC(=O)C2CC2)c2[nH]c(-c3ccc(N4CCCC4=O)cc3OC)cc12 [Compound I-26, 7-(cyclopropanecarboxamido)-2-(2-methoxy-4-(2-oxopyrrolidin-1-yl)phenyl)-N-methyl-1H-pyrrolo[2,3-c]pyridine-4-carboxamide]
< 200 | < 50 | < 50 | CNC(=O)c1cnc(NC(=O)C2CC2)c2[nH]c(-c3cccnc3OC3CC3)cc12 [Compound I-34, 7-(cyclopropanecarboxamido)-2-(2-cyclopropoxypyridin-3-yl)-N-methyl-1H-pyrrolo[2,3-c]pyridine-4-carboxamide]
200 to 1000 | < 50 | < 50 | CNC(=O)c1cnc(NC(=O)C2CC2)c2[nH]c(-c3cccc(-c4ncn(C)n4)n3)cc12 [Compound I-32, 7-(cyclopropanecarboxamido)-N-methyl-2-(6-(1-methyl-1H-1,2,4-triazol-3-yl)pyridin-2-yl)-1H-pyrrolo[2,3-c]pyridine-4-carboxamide]
200 to 1000 | < 50 | < 50 | CNC(=O)c1cnc(NC(=O)C2CC2)c2[nH]c(-c3cc(-n4ccc(C)n4)ccn3)cc12 [Compound I-17, 7-(cyclopropanecarboxamido)-N-methyl-2-(4-(3-methyl-1H-pyrazol-1-yl)pyridin-2-yl)-1H-pyrrolo[2,3-c]pyridine-4-carboxamide]
< 200 | < 50 | < 50 | CNC(=O)c1cnc(NC(=O)C2CC2)c2[nH]c(-c3ccc(C(=O)N4CCCC4)cc3OC)cc12 [Compound I-25, 7-(cyclopropanecarboxamido)-2-(2-methoxy-4-(pyrrolidine-1-carbonyl)phenyl)-N-methyl-1H-pyrrolo[2,3-c]pyridine-4-carboxamide]
1000 to 10000 | < 50 | < 50 | CCn1cc(-c2cc3c(C(=O)NC)cnc(NC(=O)C4CC4)c3[nH]2)ccc1=O [Compound I-31, 7-(cyclopropanecarboxamido)-2-(1-ethyl-6-oxo-1,6-dihydropyridin-3-yl)-N-methyl-1H-pyrrolo[2,3-c]pyridine-4-carboxamide]
